Where a name gives a salt, the structure may show the parent alone.
Test system: HiBiT-HSD17β13 fusion protein (N-terminal HiBiT-tagged HSD17β13 isoform D) in Huh7 HiBiT-HSD17β13 OE cells
Experiment: Whole-cell Huh7-HSD17B13 HiBiT assay (degrader potency and maximal efficacy, luminescence readout)
Type: cell-based, human
Conditions: 24 hour incubation, geometric mean, * = geometric mean for all forms tested (parent and salt forms); for DC50: read-out: Huh7_HIBIT-HSD17β13_DC50 GMean DC50; for Huh7_HIBIT-HSD17β13_DC50 GMean Asymptote Maximum: max. concentration 1 μM
Procedure, shortened: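 Huh7 cells stably overexpressing N-terminal HiBiT-tagged HSD17β13 isoform D, clone matched to primary hepatocyte expression, were exposed to an 11-point, 1 in 3.162 dilution series (top 1 μM final) for 24 h at 37° C. Lytic HiBiT luminescence was normalised to DMSO and parental-cell controls; DC50 from four-parameter logistic fit, with CellTiter-Glo counter screen.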

SMILES | DC50 [nM] | Huh7_HIBIT-HSD17β13_DC50 GMean Asymptote Maximum [%]
O=C(O)C(F)(F)F.O=C1CCN(c2cnc3cc(CCCN4CCN(c5ncc(-c6ccc7cn(C8CCC(CNC(=O)c9cc(F)c(O)c(F)c9F)CC8)nc7c6)cn5)CC4)ccn23)C(=O)N1 (centres unmarked) [Example 19, N-{[(1r,4r)-4-{6-[2-(4-{3-[3-(2,4-Dioxo-1,3-diazinan-1-yl)imidazo[1,2-a]pyridin-7-yl]propyl}piperazin-1-yl)pyrimidin-5-yl]-2H-indazol-2-yl}cyclohexyl]methyl}-2,3,5-trifluoro-4-hydroxybenzamide, trifluoroacetate salt] | 0.73 | 82
Cc1ccc(C(=O)N2CCC(CCCCN3CCN(c4ccc5cn(C6CCC(CNC(=O)c7cc(F)c(O)c(F)c7F)CC6)nc5c4)CC3)CC2)cc1N1CCC(=O)NC1=O (centres unmarked) [Example 20, N-{[(1r,4r)-4-{6-[4-(4-{1-[3-(2,4-Dioxo-1,3-diazinan-1-yl)-4-methylbenzoyl]piperidin-4-yl}butyl)piperazin-1-yl]-2H-indazol-2-yl}cyclohexyl]methyl}-2,3,5-trifluoro-4-hydroxybenzamide] | 2.3 | 78
Cc1ccc(C(=O)N2CCC(CCCn3cc(-c4ccc5cn([C@H]6CC[C@H](CNC(=O)c7cc(F)c(O)c(F)c7)CC6)nc5c4)cn3)CC2)cc1N1CCC(=O)NC1=O [Example 23, N-{[(1r,4r)-4-{6-[1-(3-{1-[3-(2,4-dioxo-1,3-diazinan-1-yl)-4-methylbenzoyl]piperidin-4-yl}propyl)-1H-pyrazol-4-yl]-2H-indazol-2-yl}cyclohexyl]methyl}-3,5-difluoro-4-hydroxybenzamide] | 2.4 | 75
O=C1CCN(c2cnn3cc(CCCN4CCOC5(CCN(c6ccc7cn([C@H]8CC[C@H](CNC(=O)c9cc(F)c(O)c(F)c9F)CC8)nc7c6)CC5)C4)ccc23)C(=O)N1 [Example 28, N-({(1r,4r)-4-[6-(4-{3-[3-(2,4-dioxo-1,3-diazinan-1-yl)pyrazolo[1,5-a]pyridin-6-yl]propyl}-1-oxa-4,9-diazaspiro[5.5]undecan-9-yl)-2H-indazol-2-yl]cyclohexyl}methyl)-2,3,5-trifluoro-4-hydroxybenzamide] | 0.59 | 90
O=C1CCN(c2cnn3cc(CCCN4CC(F)(F)C5(C4)CN(c4ccc6cn([C@H]7CC[C@H](CNC(=O)c8cc(F)c(O)c(F)c8F)CC7)nc6c4)C5)ccc23)C(=O)N1 [Example 29, N-({(1r,4r)-4-[6-(6-{3-[3-(2,4-dioxo-1,3-diazinan-1-yl)pyrazolo[1,5-a]pyridin-6-yl]propyl}-8,8-difluoro-2,6-diazaspiro[3.4]octan-2-yl)-2H-indazol-2-yl]cyclohexyl}methyl)-2,3,5-trifluoro-4-hydroxybenzamide] | 1.9 | 80
Cc1ccc(C(=O)N2CCC(CCCN3CCN(c4ccc5cn([C@H]6CC[C@H](CNC(=O)c7cc(F)c(O)c(F)c7F)CC6)nc5c4)CC3)CC2)cc1N1CCC(=O)NC1=O [Example 40, N-{[(1r,4r)-4-{6-[4-(3-{1-[3-(2,4-dioxo-1,3-diazinan-1-yl)-4-methylbenzoyl]piperidin-4-yl}propyl)piperazin-1-yl]-2H-indazol-2-yl}cyclohexyl]methyl}-2,3,5-trifluoro-4-hydroxybenzamide, trifluoroacetate salt] | 4.1 | 74
Cc1ccc(C(=O)N2CCN(CC3CCN(c4ncc(-c5ccc6cn([C@H]7CC[C@H](CNC(=O)c8cc(F)c(O)c(F)c8F)CC7)nc6c5)cn4)CC3)CC2)cc1N1CCC(=O)NC1=O [Example 42, N-{[(1r,4r)-4-(6-{2-[4-({4-[3-(2,4-dioxo-1,3-diazinan-1-yl)-4-methylbenzoyl]piperazin-1-yl}methyl)piperidin-1-yl]pyrimidin-5-yl}-2H-indazol-2-yl)cyclohexyl]methyl}-2,3,5-trifluoro-4-hydroxybenzamide, trifluoroacetate salt] | 3.3 | 83
Cc1ccc(C(=O)N2CCC(CN3CCN(c4ncc(-c5ccc6cn([C@H]7CC[C@H](CNC(=O)c8cc(F)c(O)c(F)c8F)CC7)nc6c5)cn4)CC3)CC2)cc1N1CCC(=O)NC1=O [Example 45, N-{[(1r,4r)-4-(6-{2-[4-({1-[3-(2,4-dioxo-1,3-diazinan-1-yl)-4-methylbenzoyl]piperidin-4-yl}methyl)piperazin-1-yl]pyrimidin-5-yl}-2H-indazol-2-yl)cyclohexyl]methyl}-2,3,5-trifluoro-4-hydroxybenzamide, trifluoroacetate salt] | 3.1 | 76
O=C1CCN(c2cnc3cc(CCCN4CCN(c5ccc6cn([C@H]7CC[C@H](CNC(=O)c8cc(F)c(O)c(F)c8F)CC7)nc6c5)CC4)ccn23)C(=O)N1 [Example 47, N-({(1r,4r)-4-[6-(4-{3-[3-(2,4-dioxo-1,3-diazinan-1-yl)imidazo[1,2-a]pyridin-7-yl]propyl}piperazin-1-yl)-2H-indazol-2-yl]cyclohexyl}methyl)-2,3,5-trifluoro-4-hydroxybenzamide, trifluoroacetate salt] | 4.3 | 78
O=C1CCN(c2cnn3cc(CCCN4CCN(c5ccc6cn([C@H]7CC[C@H](CNC(=O)c8cc(F)c(O)c(F)c8F)CC7)nc6c5)CC4)ccc23)C(=O)N1 [Example 48, N-({(1r,4r)-4-[6-(4-{3-[3-(2,4-dioxo-1,3-diazinan-1-yl)pyrazolo[1,5-a]pyridin-6-yl]propyl}piperazin-1-yl)-2H-indazol-2-yl]cyclohexyl}methyl)-2,3,5-trifluoro-4-hydroxybenzamide, trifluoroacetate salt] | 1.5 | 74
Cc1ccc(C(=O)N2CCC(CN3CCN(c4ccc(-c5ccc6cn([C@H]7CC[C@H](CNC(=O)c8cc(F)c(O)c(F)c8F)CC7)nc6c5)nn4)CC3)CC2)cc1N1CCC(=O)NC1=O [Example 49, N-{[(1r,4r)-4-(6-{6-[4-({1-[3-(2,4-dioxo-1,3-diazinan-1-yl)-4-methylbenzoyl]piperidin-4-yl}methyl)piperazin-1-yl]pyridazin-3-yl}-2H-indazol-2-yl)cyclohexyl]methyl}-2,3,5-trifluoro-4-hydroxybenzamide, trifluoroacetate salt] | 3.7 | 82
O=C1CCN(c2cnc3cc(CN4CCN(c5ncc(-c6ccc7cn([C@H]8CC[C@H](CNC(=O)c9cc(F)c(O)c(F)c9F)CC8)nc7c6)cn5)CC4)ccn23)C(=O)N1 [Example 50, N-{[(1r,4r)-4-{6-[2-(4-{[3-(2,4-dioxo-1,3-diazinan-1-yl)imidazo[1,2-a]pyridin-7-yl]methyl}piperazin-1-yl)pyrimidin-5-yl]-2H-indazol-2-yl}cyclohexyl]methyl}-2,3,5-trifluoro-4-hydroxybenzamide, trifluoroacetate salt] | 0.91 | 85
O=C1CCN(c2cnn3cc(CCCN4CCN(c5ncc(-c6ccc7cn([C@H]8CC[C@H](CNC(=O)c9cc(F)c(O)c(F)c9F)CC8)nc7c6)cn5)CC4)ccc23)C(=O)N1 [Example 53, N-{[(1r,4r)-4-{6-[2-(4-{3-[3-(2,4-dioxo-1,3-diazinan-1-yl)pyrazolo[1,5-a]pyridin-6-yl]propyl}piperazin-1-yl)pyrimidin-5-yl]-2H-indazol-2-yl}cyclohexyl]methyl}-2,3,5-trifluoro-4-hydroxybenzamide, trifluoroacetate salt] | 0.78 | 77

Reference: US20240238425A1, “HSD17B13 Inhibitors and/or Degraders” (Pfizer Inc., priority 2022, published 2024)
